Laboratory results taken from article PMC8246065 (The EMBO Journal, 2021).
Where two headings read alike, the source gives them in different places.

What was measured:
[1] = molecular target: T1, NOD1 (Homo sapiens, UniProt Q9Y239); experiment: Microscale thermophoresis (MST) binding to purified NOD1-GFP
T1 sequence (Q9Y239 1-953): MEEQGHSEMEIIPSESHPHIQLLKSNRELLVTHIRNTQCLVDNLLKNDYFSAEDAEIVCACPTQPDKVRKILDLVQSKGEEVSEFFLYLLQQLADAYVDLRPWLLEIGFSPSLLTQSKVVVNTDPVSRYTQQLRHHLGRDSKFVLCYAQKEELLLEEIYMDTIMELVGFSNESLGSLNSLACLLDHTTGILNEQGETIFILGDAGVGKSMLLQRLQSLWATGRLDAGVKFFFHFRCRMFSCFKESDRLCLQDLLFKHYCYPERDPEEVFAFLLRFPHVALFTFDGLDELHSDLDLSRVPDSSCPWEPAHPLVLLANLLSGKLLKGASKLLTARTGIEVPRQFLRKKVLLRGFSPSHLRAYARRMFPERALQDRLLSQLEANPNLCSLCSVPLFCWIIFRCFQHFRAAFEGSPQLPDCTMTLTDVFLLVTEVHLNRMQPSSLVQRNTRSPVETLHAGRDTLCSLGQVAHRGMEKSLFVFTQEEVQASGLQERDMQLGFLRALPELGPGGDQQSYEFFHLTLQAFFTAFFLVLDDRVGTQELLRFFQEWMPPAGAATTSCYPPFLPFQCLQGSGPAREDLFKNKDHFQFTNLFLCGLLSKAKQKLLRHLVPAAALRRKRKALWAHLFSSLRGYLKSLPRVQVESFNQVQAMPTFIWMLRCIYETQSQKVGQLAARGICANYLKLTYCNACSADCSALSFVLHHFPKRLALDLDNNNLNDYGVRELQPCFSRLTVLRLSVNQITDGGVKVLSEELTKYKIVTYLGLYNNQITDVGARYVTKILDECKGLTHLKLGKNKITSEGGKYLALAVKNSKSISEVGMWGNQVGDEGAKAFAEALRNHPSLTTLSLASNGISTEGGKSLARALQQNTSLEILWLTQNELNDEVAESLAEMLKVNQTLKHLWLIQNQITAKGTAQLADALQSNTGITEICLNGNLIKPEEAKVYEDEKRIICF
Description: (§1) The lysates were incubated with 2 ml GFP‐Trap agarose at 4°C for 4 h. The agarose was collected with Poly‐Prep columns by gravity flow. […] To remove heat shock proteins, columns were further washed with 50 ml wash buffer III (50 mM Tris–HCl, pH 7.5, 150 mM NaCl, 5 mM MgCl2+, 1 mM ATP). To elute the proteins, the agarose was mixed with 2 ml elution buffer (100 mM Glycine, pH 2.5) for 1 min and the eluted proteins were immediately neutralized with 0.2 ml of 1 M Tris, pH 10.5.

[2] = molecular target: NOD2 (Homo sapiens, UniProt Q9HC29); experiment: Microscale thermophoresis (MST) binding to purified NOD2-GFP
Description: as §1

[3] = test system: HEK293T NOD1/2 KO cells transfected with NOD1 or NOD2 mutants; experiment: IL8 ELISA of HEK293T cells transfected with NOD1/NOD2 mutants; type: cell-based, human
Description: To differentiate THP‐1 into macrophage‐like cells, THP‐1 cells were stimulated with 50 ng/ml phorbol 12‐myristate 13‐acetate (Sigma‐Aldrich, P8139) for 24 h and then incubated with fresh medium for another 48 h. […] To induce NOD1 or NOD2 expression, HeLa NOD1 or NOD2 cells were treated with 0.5 µg/ml or 0.25 µg/ml doxycycline for at least 16 h, respectively. All cells have been checked for mycoplasma contamination regularly. Bone marrow‐derived macrophages (BMDMs) were obtained from tibial and femural bones and generated with DMEM containing 20% L929 cell supernatant, 10% FBS, 5% heat‐inactivated horse serum, 1 mM sodium pyruvate, and 2 mM L‐glutamine. For BMDM stimulation experiments, BMDMs were treated with IFN‐γ (20 ng/ml) overnight before stimulation.
The mutagenesis was performed with Q5® site‐directed mutagenesis kit (E0554, NEB) according to the manufacturer's instructions. The primers used in this study were as follows: NOD1 E157A F: 5′‐[…]gcg[…]‐3′, NOD1 E157A R: 5′‐[…]‐3′, NOD1 D161A F: 5′‐[…]gcg[…]‐3′, NOD1 D161A R: 5′‐[…]‐3′, NOD1 D203A F: 5′‐[…]gcg[…]‐3′, D203A R: 5′‐[…]‐3′, L218A F: 5′‐[…]gcg[…]‐3′, L218A R: 5′‐[…]‐3′, R237A F: 5′‐[…]gcg[…]‐3′, R237A R: 5′‐[…]‐3′, H257A F: 5′‐[…]gcg[…]‐3′, H257A R: 5′‐[…]‐3′, E267A F: 5′‐[…]gcg[…]‐3′, E267A R: 5′‐[…]‐3′, H290A F: 5′‐[…]gcg[…]‐3′, H290A R: 5′‐[…]‐3′, E306A F: 5′‐[…]gcg[…]‐3′, E306A R: 5′‐[…]‐3′, K324A F: 5′‐[…]gcg[…]‐3′, K324A R: 5′‐[…]‐3′, K328A F: 5′‐[…]gcg[…]‐3′, K328A R: 5′‐[…]‐3′, R340A F: 5′‐[…]gcg[…]‐3′, R340A R: 5′‐[…]‐3′, R344A F: 5′‐[…]gcg[…]‐3′, R344A R: 5′‐[…]‐3′, R350A F: 5′‐[…]gcg[…]‐3′, R350A R: 5′‐[…]‐3′, D372A F: 5′‐[…]gcg[…]‐3′, D372A R: 5′‐[…]‐3′, R373A F: 5′‐[…]gcg[…]‐3′, R373A R: 5′‐[…]‐3′, R399A F: 5′‐[…]gcg[…]‐3′, R399A R: 5′‐[…]‐3′, D423A F: 5′‐[…]gcg[…]‐3′, D423A R: 5′‐[…]‐3′, R435A F: 5′‐5′‐[…]gcg[…]‐3′, R435A R: 5′‐[…]‐3′, Q484A F: 5′‐[…]gcg[…]‐3′, Q484A R: 5′‐[…]‐3′, L495A F: 5′‐[…]gcg[…]‐3′, L495A R: 5′‐[…]‐3′, E514A F: 5′‐[…]gcg[…]‐3′, E514A R: 5′‐[…]‐3′, H517A F: 5′‐[…]gcg[…]‐3′, H517A R: 5′‐[…]‐3′, L540A F: 5′‐[…]gcg[…]‐3′, L540A R: 5′‐[…]‐3′, F544A F: 5′‐[…]gcg[…]‐3′, and F544A R: 5′‐[…]‐3′.

NOD2, sequence (Q9HC29 whole entry): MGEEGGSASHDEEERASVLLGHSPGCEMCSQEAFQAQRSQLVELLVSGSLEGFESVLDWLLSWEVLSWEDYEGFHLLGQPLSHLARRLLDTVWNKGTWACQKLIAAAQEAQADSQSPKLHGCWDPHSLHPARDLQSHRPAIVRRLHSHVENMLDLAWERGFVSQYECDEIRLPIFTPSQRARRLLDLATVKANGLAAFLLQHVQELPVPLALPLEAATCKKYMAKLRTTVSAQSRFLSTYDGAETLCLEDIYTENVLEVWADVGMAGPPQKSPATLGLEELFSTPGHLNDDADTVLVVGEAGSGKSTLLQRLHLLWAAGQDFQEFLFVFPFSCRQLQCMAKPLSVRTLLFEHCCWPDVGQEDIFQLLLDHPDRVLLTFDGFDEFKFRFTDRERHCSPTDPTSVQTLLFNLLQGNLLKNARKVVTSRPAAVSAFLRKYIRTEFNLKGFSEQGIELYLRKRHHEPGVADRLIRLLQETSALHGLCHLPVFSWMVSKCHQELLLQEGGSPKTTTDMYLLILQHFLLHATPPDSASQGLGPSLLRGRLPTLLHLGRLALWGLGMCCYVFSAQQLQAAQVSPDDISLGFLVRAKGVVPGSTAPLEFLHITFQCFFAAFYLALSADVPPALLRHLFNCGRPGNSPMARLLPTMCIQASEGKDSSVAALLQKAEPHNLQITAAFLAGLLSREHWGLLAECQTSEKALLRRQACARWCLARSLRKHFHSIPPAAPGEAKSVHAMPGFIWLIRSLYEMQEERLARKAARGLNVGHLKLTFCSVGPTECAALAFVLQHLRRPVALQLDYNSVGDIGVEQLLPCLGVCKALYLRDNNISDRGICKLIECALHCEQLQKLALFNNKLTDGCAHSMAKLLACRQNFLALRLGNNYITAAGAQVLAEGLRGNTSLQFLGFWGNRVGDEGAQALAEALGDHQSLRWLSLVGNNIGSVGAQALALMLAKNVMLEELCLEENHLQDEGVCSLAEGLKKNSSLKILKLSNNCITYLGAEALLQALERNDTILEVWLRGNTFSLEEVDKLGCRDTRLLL

Q: Which results are given for CCCCCCCCCCCCC/C=C/[C@@H](O)[C@@H](N)COP(=O)(O)O [S1P, sphingosine‐1‐phosphate]?
A: Kd ([1]; Fig 6D, one representative experiment, read-out: Kd (NOD1/ligand)): 2090 ± 770 nM; Kd ([1]; Fig EV5B, purified NOD1, read-out: Kd (NOD1/ligand)): 2290 ± 1970 nM; Kd ([1]; Kd value of S1P interacting with NOD1, as stated in text): ~2000 nM; Kd ([1]; Kd(NOD1: S1P), Fig 7C, S1P alone): 1740 ± 430 nM; Kd ([1]; Kd(NOD1 WT: S1P), Fig 7E): 2200 ± 510 nM; Kd ([2]; Fig 6E, one representative experiment, read-out: Kd (NOD2/ligand)): 5360 ± 1910 nM; Kd ([2]; Fig EV5C, purified NOD2, read-out: Kd (NOD2/ligand)): 3190 ± 1970 nM; Kd ([2]; Kd value of S1P interacting with NOD2, as stated in text): ~5000 nM; Kd ([2]; Kd(NOD2: S1P), Fig 7D, S1P alone): 2400 ± 380 nM; IL8 production in cells expressing LRR-deficient NOD1/2 (NOD1/2∆LRR) ([3]; 20 µM with digitonin, 20 h): elevated; IL8 production in cells expressing NOD1/2 WT ([3]; 20 µM with digitonin, 20 h): induced; IL8 production / activation in HEK293T cells expressing NOD2 1007fs ([3]; 20 µM, 48 h, digitonin): increased; Activation (IL8) of NOD1 K328A or H517A ([3]; Fig EV5H): not
